Results on 24 compounds are retold here after ChEMBL document CHEMBL1777730, “Antimycobacterial activity of novel 1,2,4-oxadiazole-pyranopyridine/chromene hybrids generated by chemoselective 1,3-dipolar cycloadditions of nitrile oxides” (2011).

SMILES strings stand for the structures. ≈ marks a conversion by molar mass, not a printed value.

In the experiment the test system is Mycobacterium tuberculosis. The experiment can be described thus: Antimycobacterial activity against Mycobacterium tuberculosis H37Rv by agar dilution method. Type of experiment: functional. Background: In agar dilution the substance is mixed into plates at graded concentrations.
In general, MIC refers to the least concentration at which growth counts as inhibited. `CN1CC2=C(OC(N)=C(c3nc(-c4ccc(Cl)cc4)no3)C2c2ccccc2)/C(=C/c2ccccc2)C1` (centres undefined): the MIC amounted to 12.3 µM (≈ 6.25 µg/mL).

`CN1CC2=C(OC(N)=C(c3nc(-c4ccc(Cl)cc4)no3)C2c2ccc(Cl)cc2)/C(=C/c2ccc(Cl)cc2)C1` (centres undefined) gave an MIC of 0.35 µM (≈ 0.202 µg/mL).

As to `Cc1ccc(/C=C2\CN(C)CC3=C2OC(N)=C(c2nc(-c4ccc(Cl)cc4)no2)C3c2ccc(C)cc2)cc1` (centres undefined), the lowest concentration to inhibit growth (MIC) was 3.28 µM (≈ 1.76 µg/mL).

`COc1ccc(/C=C2\CN(C)CC3=C2OC(N)=C(c2nc(-c4ccc(Cl)cc4)no2)C3c2ccc(OC)cc2)cc1` (centres undefined) yielded a minimum inhibitory concentration (MIC) of 22 µM (≈ 12.5 µg/mL).

For the compound `Cc1ccccc1/C=C1\CN(C)CC2=C1OC(N)=C(c1nc(-c3ccc(Cl)cc3)no1)C2c1ccccc1C` (centres undefined), the MIC turned out to be 11.6 µM (≈ 6.25 µg/mL).

On to `COc1ccccc1/C=C1\CN(C)CC2=C1OC(N)=C(c1nc(-c3ccc(Cl)cc3)no1)C2c1ccccc1OC` (centres undefined), for which inhibition of growth (MIC) required 5.5 µM (≈ 3.13 µg/mL).

In turn, `CN1CC2=C(OC(N)=C(c3nc(-c4ccc(Cl)cc4)no3)[C@@H]2c2cccc(F)c2)/C(=C/c2cccc(F)c2)C1` came in with a minimal inhibitory concentration (MIC) of 0.73 µM (≈ 0.398 µg/mL).

For the compound `CN1CC2=C(OC(N)=C(c3nc(-c4ccc(Cl)cc4)no3)C2c2ccc(Cl)cc2Cl)/C(=C/c2ccc(Cl)cc2Cl)C1` (centres undefined), 0.31 µM (≈ 0.201 µg/mL) was the least that counted as inhibitory (MIC).

For the compound `CN1CC2=C(OC(N)=C(c3nc(-c4ccc(Cl)cc4)no3)C2c2ccc(N(C)C)cc2)/C(=C/c2ccc(N(C)C)cc2)C1` (centres undefined), the minimum inhibitory concentration (MIC) was found to be 5.26 µM (≈ 3.13 µg/mL).

`NC1=C(c2nc(-c3ccccc3)no2)C(c2ccc(Cl)cc2)C2=C(O1)/C(=C/c1ccc(Cl)cc1)CCC2` (centres undefined): the MIC stood at 23.7 µM (≈ 12.5 µg/mL).

Consider `COc1ccc(/C=C2\CCCC3=C2OC(N)=C(c2nc(-c4ccccc4)no2)[C@@H]3c2ccc(OC)cc2)cc1`, for which the MIC was determined as 24.1 µM (≈ 12.5 µg/mL).

Compound `NC1=C(c2nc(-c3ccccc3)no2)C(c2ccc(F)cc2)C2=C(O1)/C(=C/c1ccc(F)cc1)CCC2` (centres undefined) registered an MIC of 12.6 µM (≈ 6.26 µg/mL).

On to `Cc1ccccc1/C=C1\CCCC2=C1OC(N)=C(c1nc(-c3ccccc3)no1)C2c1ccccc1C` (centres undefined), for which the MIC was over 25 µM.

Compound `COc1ccccc1/C=C1\CCCC2=C1OC(N)=C(c1nc(-c3ccccc3)no1)C2c1ccccc1OC` (centres undefined) gave an MIC of 24.1 µM (≈ 12.5 µg/mL).

As for `NC1=C(c2nc(-c3ccccc3)no2)C(c2cccc(F)c2)C2=C(O1)/C(=C/c1cccc(F)c1)CCC2` (centres undefined), the lowest concentration to inhibit growth (MIC) was 12.6 µM (≈ 6.26 µg/mL).

Consider `N#CC1=C(N)OC2=C(CCC/C2=C\c2ccccc2)C1c1ccccc1` (centres undefined), for which the minimal inhibitory concentration (MIC) is over 25 µM.

Consider `N#CC1=C(N)OC2=C(CCC/C2=C\c2ccc(Cl)cc2)C1c1ccc(Cl)cc1` (centres undefined), for which the MIC is over 25 µM.

Consider `Cc1ccc(/C=C2\CCCC3=C2OC(N)=C(C#N)C3c2ccc(C)cc2)cc1` (centres undefined), for which the MIC was over 25 µM.

In the case of `COc1ccc(/C=C2\CCCC3=C2OC(N)=C(C#N)C3c2ccc(OC)cc2)cc1` (centres undefined), the MIC was over 25 µM.

The compound `N#CC1=C(N)OC2=C(CCC/C2=C\c2ccc(F)cc2)C1c1ccc(F)cc1` (centres undefined) gave an MIC of over 25 µM.

With `N#CC1=C(N)OC2=C(CCC/C2=C\c2ccccc2Cl)C1c1ccccc1Cl` (centres undefined), the minimum inhibitory concentration (MIC) is over 25 µM.

`CC[C@@H](CO)NCCN[C@@H](CC)CO` [ETHAMBUTOL] returned an MIC of 7.64 µM (≈ 1.56 µg/mL).

`NNC(=O)c1ccncc1` [ISONIAZID]: it took 0.36 µM (≈ 0.0494 µg/mL) to inhibit growth (MIC).

Consider `CO[C@H]1/C=C/O[C@@]2(C)Oc3c(C)c(O)c4c(O)c(c(/C=N/N5CCN(C)CC5)c(O)c4c3C2=O)NC(=O)/C(C)=C\C=C\[C@H](C)[C@H](O)[C@@H](C)[C@@H](O)[C@@H](C)[C@H](OC(C)=O)[C@@H]1C` [RIFAMPIN], for which the MIC came to 0.12 µM (≈ 0.0988 µg/mL).
